Counter-ions that a name gives are not always drawn. Like-named read-outs stand apart in the source and are kept apart here.
Tests used:
[1] = system: phosphorylation of the IRF-3 protein in MDA-MB-468 cells; experiment: pIRF3 immunocytochemistry cell based assay; details: Homo sapiens
Summary of the method: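 MDA-MB-468 cells got compounds (10-point, 3-fold from 10 uM) for 1 h at 37 °C, then 10 ug/ml Poly(I:C) for 2 h. Fixed, permeabilized cells were immunostained for pIRF3 with AlexaFluor488 and counterstained with PI. % phosphorylation was read by laser scanning cytometry, and IC50 curves were fitted.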

[2] = molecular target: T1, IKKε (Homo sapiens, UniProt Q14164); experiment: IKKe Biochemical Assay
T1 sequence (Q14164 1-716): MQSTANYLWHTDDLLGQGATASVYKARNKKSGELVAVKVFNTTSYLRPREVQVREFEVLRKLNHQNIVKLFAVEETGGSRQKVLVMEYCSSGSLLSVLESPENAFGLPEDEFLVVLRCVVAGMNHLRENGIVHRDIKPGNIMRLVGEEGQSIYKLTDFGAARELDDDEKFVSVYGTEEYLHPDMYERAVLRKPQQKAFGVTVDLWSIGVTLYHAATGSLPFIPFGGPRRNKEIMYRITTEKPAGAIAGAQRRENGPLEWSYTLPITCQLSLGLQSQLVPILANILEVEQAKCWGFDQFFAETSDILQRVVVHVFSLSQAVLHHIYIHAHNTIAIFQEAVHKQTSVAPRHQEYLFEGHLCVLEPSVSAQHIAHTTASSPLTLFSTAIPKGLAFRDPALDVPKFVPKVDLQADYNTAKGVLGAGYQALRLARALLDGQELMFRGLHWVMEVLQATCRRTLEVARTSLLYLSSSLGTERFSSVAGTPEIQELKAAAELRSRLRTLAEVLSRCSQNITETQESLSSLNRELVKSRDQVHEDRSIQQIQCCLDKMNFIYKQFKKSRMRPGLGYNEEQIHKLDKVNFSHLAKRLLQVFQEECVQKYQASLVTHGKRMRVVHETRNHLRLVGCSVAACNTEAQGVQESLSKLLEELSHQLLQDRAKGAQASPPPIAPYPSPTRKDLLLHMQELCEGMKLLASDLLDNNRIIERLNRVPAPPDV
Summary of the method: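 Recombinant IKKε and substrate were incubated with compound (10-point 1:4 series, top 30 uM final, 1% DMSO) for 90 min at 25° C, then stopped. Substrate-to-product conversion was read by LabChip microfluidic mobility shift; 10 uM staurosporine served as full-inhibition wells.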

[3] = molecular target: T2, TBK1 (Homo sapiens, UniProt Q9UHD2); experiment: TBK Biochemical Assay
T2 sequence (Q9UHD2 1-729): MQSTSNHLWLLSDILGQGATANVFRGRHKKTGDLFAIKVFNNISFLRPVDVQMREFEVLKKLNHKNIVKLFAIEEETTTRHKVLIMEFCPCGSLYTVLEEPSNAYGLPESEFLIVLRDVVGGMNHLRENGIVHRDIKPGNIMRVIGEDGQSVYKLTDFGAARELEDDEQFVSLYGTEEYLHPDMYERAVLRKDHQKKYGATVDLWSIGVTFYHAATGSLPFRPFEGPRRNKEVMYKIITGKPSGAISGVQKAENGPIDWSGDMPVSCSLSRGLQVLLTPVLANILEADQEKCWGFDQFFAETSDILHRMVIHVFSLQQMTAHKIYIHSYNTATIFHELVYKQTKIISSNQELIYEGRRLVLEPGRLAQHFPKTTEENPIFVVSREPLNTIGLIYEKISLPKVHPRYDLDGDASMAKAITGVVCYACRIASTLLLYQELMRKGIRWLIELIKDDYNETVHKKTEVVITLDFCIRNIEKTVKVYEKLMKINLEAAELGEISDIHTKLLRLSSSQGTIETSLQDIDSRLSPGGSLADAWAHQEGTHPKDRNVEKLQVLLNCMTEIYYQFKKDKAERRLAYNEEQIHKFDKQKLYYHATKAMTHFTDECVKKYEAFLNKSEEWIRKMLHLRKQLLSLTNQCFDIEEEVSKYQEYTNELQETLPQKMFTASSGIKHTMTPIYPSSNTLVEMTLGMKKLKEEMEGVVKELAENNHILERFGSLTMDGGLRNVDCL
Summary of the method: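 TBK1 enzyme and substrate incubated with compounds (10-point 1:4 dilution, top 30 uM final, 1% DMSO) for 90 min at 25° C, then stopped. Substrate/product peaks read by microfluidic mobility-shift (Caliper LabChip); 10 uM staurosporine as full-inhibition control.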

[4] = MDA-MB-468 cells, Poly(I:C) stimulation, read-out: pIRF3 IC50

| IC50 [1, 4] | IC50 ([2]; read-out: IKKε IC50) | IC50 ([3]; read-out: TBK1 IC50) | SMILES | IC50 ([1]; MDA-MB-468, read-out: pIRF3 IC50) | IC50 [2] | IC50 ([3]; TBK1 IC50) |
| --- | --- | --- | --- | --- | --- | --- |
| 100 to 1000 nM | < 100 nM | < 100 nM | COc1cc(C(=O)NC2CCOC2)ccc1-c1cc2nccc(-c3ccc(NC4CCOCC4)c(C#N)c3)c2o1 (stereo not drawn) [Compound 117, 4-{7-[3-Cyano-4-(tetrahydro-pyran-4-ylamino)-phenyl]-furo[3,2-b]pyridin-2-yl}-3-methoxy-N-(tetrahydro-furan-3-yl)-benzamide] |  |  |  |
| 100 to 1000 nM | < 100 nM | < 100 nM | COc1cc(C(=O)NCCC2CCNCC2)ccc1-c1cc2nccc(-c3ccc(OC4CCOCC4)c(C#N)c3)c2o1 [Compound 118, 4-{7-[3-Cyano-4-(tetrahydro-pyran-4-yloxy)-phenyl]-furo[3,2-b]pyridin-2-yl}-3-methoxy-N-(2-piperidin-4-yl-ethyl)-benzamide hydrochloride] |  |  |  |
| 100 to 1000 nM | < 100 nM | < 100 nM | COc1cc(C(=O)NC2CC(O)C2)ccc1-c1cc2nccc(-c3ccc(NC4CCOCC4)c(C#N)c3)c2o1 (stereo not drawn) [Compound 122, 4-{7-[3-Cyano-4-(tetrahydro-pyran-4-ylamino)-phenyl]-furo[3,2-b]pyridin-2-yl}-N-(3-hydroxy-cyclobutyl)-3-methoxy-benzamide] |  |  |  |
| 100 to 1000 nM | < 100 nM | < 100 nM | COc1cc(C(=O)NC2CCN(C(=O)OC(C)(C)C)C2)ccc1-c1cc2nccc(-c3ccc(OC4CCOCC4)c(C#N)c3)c2o1 (stereo not drawn) [Compound 125, 3-(4-{7-[3-Cyano-4-(tetrahydro-pyran-4-yloxy)-phenyl]-furo[3,2-b]pyridin-2-yl}-3-methoxy-benzoylamino)-pyrrolidine-1-carboxylic acid tert-butyl ester] |  |  |  |
| 100 to 1000 nM | < 100 nM | < 100 nM | COc1cc(C(=O)NC2CCNC2)ccc1-c1cc2nccc(-c3ccc(NC4CCOCC4)c(C#N)c3)c2o1 (stereo not drawn) [Compound 130, 4-{7-[3-Cyano-4-(tetrahydro-pyran-4-ylamino)-phenyl]-furo[3,2-b]pyridin-2-yl}-3-methoxy-N-pyrrolidin-3-yl-benzamide] |  |  |  |
| 100 to 1000 nM | < 100 nM | < 100 nM | COc1cc(C(=O)NC(C)(C)CN(C)C)ccc1-c1cc2nccc(-c3ccc(NC4CCOCC4)c(C#N)c3)c2o1 [Compound 134, 4-{7-[3-Cyano-4-(tetrahydro-pyran-4-ylamino)-phenyl]-furo[3,2-b]pyridin-2-yl}-N-(2-dimethylamino-1,1-dimethyl-ethyl)-3-methoxy-benzamide] |  |  |  |

Continued, compound first:

| SMILES | IC50 [1, 4] | IC50 ([2]; read-out: IKKε IC50) | IC50 ([3]; read-out: TBK1 IC50) | IC50 ([1]; MDA-MB-468, read-out: pIRF3 IC50) | IC50 [2] | IC50 ([3]; TBK1 IC50) |
| --- | --- | --- | --- | --- | --- | --- |
| COc1cc(C(=O)NC2CN3CCC2CC3)ccc1-c1cc2nccc(-c3ccc(NC4C5COCC54)c(C#N)c3)c2o1 (stereo not drawn) [Compound 119, N-(1-Aza-bicyclo[2.2.2]oct-3-yl)-4-{7-[3-cyano-4-(3-oxa-bicyclo[3.1.0]hex-6-ylamino)-phenyl]-furo[3,2-b]pyridin-2-yl}-3-methoxy-benzamide] |  |  |  | < 100 nM | < 100 nM | < 100 nM |
| CN(C)C(=O)c1ccc(-c2cc3nccc(-c4ccc(N5CC[C@@H](F)C5)c(C#N)c4)c3o2)cc1 [Compound 120, 4-{7-[3-Cyano-4-((R)-3-fluoro-pyrrolidin-1-yl)-phenyl]-furo[3,2-b]pyridin-2-yl}-N,N-dimethyl-benzamide] | 100 to 1000 nM | < 100 nM | < 100 nM |  |  |  |
| CN(C)C(=O)c1cccc(-c2cc3nccc(-c4ccc(OC5CCOCC5)c(C#N)c4)c3o2)c1 [Compound 123] | 1000 to 5000 nM | < 100 nM | < 100 nM |  |  |  |
| CC1(O)CN(C(=O)c2ccc(-c3cc4nccc(-c5ccc(OC6CCOCC6)c(C#N)c5)c4o3)cc2)C1 [Compound 124, 5-{2-[4-(3-Hydroxy-3-methyl-azetidine-1-carbonyl)-phenyl]-furo[3,2-b]pyridin-7-yl}-2-(tetrahydro-pyran-4-yloxy)-benzonitrile] | 1000 to 5000 nM | < 100 nM | < 100 nM |  |  |  |
| CN(C)C(=O)c1ccc(-c2cc3nccc(-c4ccc(OC5CCOCC5F)c(C#N)c4)c3o2)cc1 (stereo not drawn) [Compound 129] | 100 to 1000 nM | < 100 nM | < 100 nM |  |  |  |
| N#Cc1cc(-c2ccnc3cc(-c4ccc(C(=O)N5CCN(C6CC6)CC5)cc4)oc23)ccc1OC1CCOCC1 [Compound 133, 5-{2-[4-(4-Cyclopropyl-piperazine-1-carbonyl)-phenyl]-furo[3,2-b]pyridin-7-yl}-2-(tetrahydro-pyran-4-yloxy)-benzonitrile] | 1000 to 5000 nM | < 100 nM | < 100 nM |  |  |  |
| N#Cc1cc(-c2ccnc3cc(-c4ccc(C(=O)N[C@H]5CNCC[C@@H]5F)cc4)oc23)ccc1OC1CCOCC1 [Compound 135, 4-{7-[3-Cyano-4-(tetrahydro-pyran-4-yloxy)-phenyl]-furo[3,2-b]pyridin-2-yl}-N-((3S,4S)-4-fluoro-piperidin-3-yl)-benzamide] | 100 to 1000 nM | < 100 nM | < 100 nM |  |  |  |
| N#Cc1cc(-c2ccnc3cc(-c4ccc(C(=O)N5CC[C@H](F)C5)cc4)oc23)ccc1OC1CCOCC1 [Compound 136, 5-{2-[4-((S)-3-Fluoro-pyrrolidine-1-carbonyl)-phenyl]-furo[3,2-b]pyridin-7-yl}-2-(tetrahydro-pyran-4-yloxy)-benzonitrile] | 1000 to 5000 nM | < 100 nM | < 100 nM |  |  |  |
| N#Cc1cc(-c2ccnc3cc(-c4cnn(C5COC5)c4)oc23)ccc1OC1CCOCC1 [Compound 138] | 1000 to 5000 nM | < 100 nM | < 100 nM |  |  |  |
| N#Cc1cc(-c2ccnc3cc(-c4ccc(C(=O)NC5CN6CCC5CC6)cc4F)oc23)ccc1OC1CCOCC1 (stereo not drawn) [Compound 139, N-(1-Aza-bicyclo[2.2.2]oct-3-yl)-4-{7-[3-cyano-4-(tetrahydro-pyran-4-yloxy)-phenyl]-furo[3,2-b]pyridin-2-yl}-3-fluoro-benzamide] | 100 to 1000 nM | < 100 nM | < 100 nM |  |  |  |
| COc1cc(C(=O)N(C)C)ccc1-c1cc2nccc(-c3ccc(OC4CCCNC4)c(C#N)c3)c2o1 (stereo not drawn) [Compound 140, 4-{7-[3-Cyano-4-(piperidin-3-yloxy)-phenyl]-furo[3,2-b]pyridin-2-yl}-3-methoxy-N,N-dimethyl-benzamide Hydrochloride] | < 100 nM | < 100 nM | < 100 nM |  |  |  |
| N#Cc1cc(-c2ccnc3cc(-c4ccc(C(=O)N[C@@H]5CNCC[C@H]5F)cc4)oc23)ccc1OC1CCOCC1 [Compound 141, 4-{7-[3-Cyano-4-(tetrahydro-pyran-4-yloxy)-phenyl]-furo[3,2-b]pyridin-2-yl}-N-((3R,4R)-4-fluoro-piperidin-3-yl)-benzamide] | 100 to 1000 nM | < 100 nM | < 100 nM |  |  |  |
| N#Cc1cc(-c2ccnc3cc(-c4cccc(C(=O)NC5CN6CCC5CC6)c4)oc23)ccc1OC1CCOCC1 (stereo not drawn) [Compound 143] | 100 to 1000 nM | < 100 nM | < 100 nM |  |  |  |
| N#Cc1cc(-c2ccnc3cc(-c4ccc(C(=O)NC5CN6CCC5CC6)cc4)oc23)ccc1OC1CCOCC1 (stereo not drawn) [Compound 145, N-(1-Aza-bicyclo[2.2.2]oct-3-yl)-4-{7-[3-cyano-4-(tetrahydro-pyran-4-yloxy)-phenyl]-furo[3,2-b]pyridin-2-yl}-benzamide] | 100 to 1000 nM | < 100 nM | < 100 nM |  |  |  |

Reference: patent publication US10428080B2, “TBK/IKK inhibitor compounds and uses thereof” (Merck Patent GmbH, priority 2015, dated 2019)
